The series can be described thus: Stability in mouse plasma assay. Particulars: 1 μM, 37 °C, 2 h incubation. In kind it is in vitro ADME. Here is the method:
Thaw plasma at room temperature and vortex for 3–5 s. Centrifuge at 3000 rpm at 10 °C for 10 min, and carefully transfer the supernatant to a new Eppendorf tube. Preincubate the plasma at 37 °C for 10 min. Prepare a series of test substances by adding 3 μL of the compound (100 μM) to 297 μL of plasma to achieve a final concentration of 1 μM, ensuring that the DMSO concentration in plasma is 1%. Propantheline bromide is used as a positive control. Incubate the mixture at 37 °C, and at specified time points (0, 1, 2, 4, and 24 h), take 50 μL of the plasma sample. To terminate the reaction, add 250 μL of acetonitrile (containing an internal standard), vortex thoroughly, and centrifuge at 16,000 rcf (4 °C) for 10 min. Collect 130 μL of the supernatant and dilute with 70 μL of pure water for LC-MS/MS analysis. The concentration of the test substances in plasma samples was determined using LC-MS/MS. The stability of the test substance in plasma was evaluated by measuring the remaining percentage of the compound in the plasma over time.

Consider `CCCCC(C)CC(C)C(=O)N(C)C(Cc1ccc(OC)cc1)C(=O)NC(C(=O)N(C)C(C(=O)N1CC(O)CC1C(=O)N1C(=O)C=CC1C)C(C)C)C(C)OC(C)=O` (stereo not shown) [Compound 1a, Majusculamide D], for which the “remaining percentage in mouse plasma after 2 h” value is listed as 54.7%.
